From the supplement of paper PMC10307832 come the findings set out here.

Common to all, as to experiment: relative viability (nuclei count vs DMSO), 5 days (fraction); higher = more cells survive
Compound in assay [1]: CCn1c(-c2nonc2N)nc2cnc(Oc3cccc(NC(=O)c4ccc(OCCN5CCOCC5)cc4)c3)cc21 + Nc1ncn([C@H]2C[C@H](O)[C@@H](CO)O2)c(=O)n1 [Decitabine] (partner 2 µM)
The procedure, abridged:
(§1)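 Five library-drug doses in √10 steps were combined with a fixed anchor-drug dose, or a single drug was given alone, by pin tool to lung cancer cell lines in 1536-well plates the day after seeding. Nuclei were stained and counted after 5 days. Relative viability is the nuclei count in treated wells over that in vehicle wells, taken as the median of duplicate plates.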

Compound in assay [2]: CCn1c(-c2nonc2N)nc2cnc(Oc3cccc(NC(=O)c4ccc(OCCN5CCOCC5)cc4)c3)cc21 + CC(=O)c1c(C)c2cnc(Nc3ccc(N4CCNCC4)cn3)nc2n(C2CCCC2)c1=O [Palbociclib] (partner 0.5 µM)
The procedure, abridged:
as §1

Compound in assay [3]: CCC1=CN=CN=C1N2CCN(CC2)CC3=NC4=C(N3)C=C(C=C4)C(F)(F)F + CS(=O)(=O)N1CCN(Cc2cc3nc(-c4cccc5[nH]ncc45)nc(N4CCOCC4)c3s2)CC1 [Pictilisib] (partner 1 µM)
A digest of the protocol: as §1

Compound in assay [4]: N=C1NC(=O)/C(=C/c2ccc(O)cc2)S1 [Mirin] + CS(=O)(=O)N1CCN(Cc2cc3nc(-c4cccc5[nH]ncc45)nc(N4CCOCC4)c3s2)CC1 [Pictilisib] (partner 1 µM)
A digest of the protocol: as §1

UMC-11: the relative viability is 0.596 in assay [1] (first compound 0.04 µM); 0.528 in assay [1] (first compound 0.1265 µM); 0.423 in assay [1] (first compound 0.4 µM); 0.125 in assay [1] (first compound 1.265 µM); 0.269 in assay [1] (first compound 4 µM); 0.277 in assay [2] (first compound 0.04 µM). Moreover, the relative viability in assay [2] (first compound 0.1265 µM) is 0.379; in assay [2] (first compound 0.4 µM) it was 0.269; in assay [2] (first compound 1.265 µM), 0.151; in assay [2] (first compound 4 µM), 0.248; in assay [3] (first compound 0.04 µM), 0.723; in assay [3] (first compound 0.1265 µM), 0.832. Further, the relative viability worked out at 0.706 in assay [3] (first compound 0.4 µM); 0.548 in assay [3] (first compound 1.265 µM); 0.741 in assay [3] (first compound 4 µM); 0.798 in assay [4] (first compound 0.25 µM); 0.164 in assay [4] (first compound 0.7906 µM); 0.849 in assay [4] (first compound 2.5 µM). Further, the relative viability is 0.509 in assay [4] (first compound 7.906 µM) and 0.4 in assay [4] (first compound 25 µM).
